These results are taken from ChEMBL document CHEMBL3862034, “Measurement of Ligand-Target Residence Times by 1H Relaxation Dispersion NMR Spectroscopy” (J Med Chem, 2016).

For test [1], the species on record is Bos taurus. Nature of the test: Binding affinity to bovine trypsin assessed as ligand-target residence time at 1H-4/5 resonance by (1)H relaxation dispersion NMR spectroscopy.
Test [2] is filed under the species Bos taurus. Nature of the test: Binding affinity to bovine trypsin assessed as ligand-target residence time at 1H-9 resonance by (1)H relaxation dispersion NMR spectroscopy.
In another test the test system is Fusobacterium nucleatum. Briefly: Binding affinity to Fusobacterium nucleatum class I aptamer assessed as ligand-target residence time at 1H-8 resonance by (1)H relaxation dispersion NMR spectroscopy.
Test [3] has as its system Caldanaerobacter subterraneus subsp. tengcongensis. Nature of the test: Binding affinity to Thermoanaerobacter tengcongensis class I aptamer assessed as ligand-target residence time at 1H-8 resonance by (1)H relaxation dispersion NMR spectroscopy.

In the case of `Nc1ccc2cc3ccc(N)cc3nc2c1`, the TIME was found to be 5.28e-08 h in the test listed under Bos taurus [1] and 5.56e-08 h in the test filed under Bos taurus [2].
With `NCc1c[nH]c2nc(N)[nH]c(=O)c12`, the TIME in the test on Fusobacterium nucleatum was determined as 1.75e-07 h; in test [3], 6.39e-08 h.
